Target: T1, β-xylosidase (SSO3032) (Saccharolobus solfataricus, UniProt Q97UI4)
T1 construct: full gene cloned in pSVAmalFX-Nt6H (His6 tag)
Assay: colorimetric pNP release at […] nm
Format: biochemical
Settings: 1 mM pNPX, 50 mM sodium acetate pH 6.0, 90 °C, 10 min

T1 sequence (Q97UI4 entry or part of it): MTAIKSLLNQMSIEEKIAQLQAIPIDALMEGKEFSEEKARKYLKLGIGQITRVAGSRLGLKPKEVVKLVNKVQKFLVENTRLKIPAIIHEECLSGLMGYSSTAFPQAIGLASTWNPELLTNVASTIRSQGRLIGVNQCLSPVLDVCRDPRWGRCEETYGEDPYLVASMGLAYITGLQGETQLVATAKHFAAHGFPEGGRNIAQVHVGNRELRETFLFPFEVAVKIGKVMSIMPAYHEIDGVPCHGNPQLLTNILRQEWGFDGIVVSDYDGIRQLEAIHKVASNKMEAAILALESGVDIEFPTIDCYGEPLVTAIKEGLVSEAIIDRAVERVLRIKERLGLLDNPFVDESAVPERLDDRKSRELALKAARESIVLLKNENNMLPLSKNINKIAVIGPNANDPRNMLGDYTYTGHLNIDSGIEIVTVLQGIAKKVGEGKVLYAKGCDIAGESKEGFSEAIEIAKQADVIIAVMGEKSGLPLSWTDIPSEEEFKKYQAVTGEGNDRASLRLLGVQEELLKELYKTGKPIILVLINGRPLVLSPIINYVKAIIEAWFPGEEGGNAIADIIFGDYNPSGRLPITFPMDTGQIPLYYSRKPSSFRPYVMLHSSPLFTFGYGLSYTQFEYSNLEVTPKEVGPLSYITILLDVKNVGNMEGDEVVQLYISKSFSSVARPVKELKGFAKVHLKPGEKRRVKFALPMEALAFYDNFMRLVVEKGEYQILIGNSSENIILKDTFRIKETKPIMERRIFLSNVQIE

O=[N+]([O-])c1ccc(O[C@@H]2OC[C@@H](O)[C@H](O)[C@H]2O)cc1 [pNPX]
colorimetric pNP release at 420 nm: performed with 4-nitrophenol-β-D-xylopyranoside (pNPX) as a substrate
